Experimental data taken from PMC12752606, “METTL10‐Mediated PIAS3 Methylation Links Purine Metabolism to Gastric Cancer Progression” (Advanced Science, 2025).
Where “and” joins values, the source holds several entries; their conditions need not be identical. Equal entries are not always repeated. Where two headings read alike, the source gives them in different places.

Columns and labels:
ICR mice = assay: Acute toxicity at 125 mg/kg, 7-day observation and histopathology; format: in vivo
Description: For the acute toxic study, 8‐week‐old ICR mice (n = 6 per group) were administered a single intraperitoneal injection of LZQ‐02‐023‐01 at escalating doses. A vehicle‐treated group served as control. Survival was monitored continuously for 24 h postadministration. Additionally, another cohort of ICR mice (n = 5 per group) received a single intraperitoneal dose of LZQ‐02‐023‐01 at 125 mg/kg and were subsequently monitored daily for 7 days for clinical signs of toxicity, behavioral changes, body weight fluctuations, and mortality. At the conclusion of the observation period, animals were euthanized and subjected to a comprehensive gross necropsy. Major organs, including the liver, kidney, heart, lung, and spleen, were harvested for histopathological examination. For the chronic toxic study, 8‐week‐old ICR mice (n = 5 per group) received daily intraperitoneal injections of LZQ‐02‐023‐01 at a therapeutic dose of 40 mg/kg for 14 consecutive days. A vehicle‐treated group was included as a control. Throughout the treatment period, animals were monitored daily for clinical signs of toxicity and weighed every 2 days. At study termination, blood samples were collected for hematological and biochemical analyses. […]

[1] = Plasma pharmacokinetics after IV and PO administration; format: in vivo, male Sprague–Dawley rats
Description: LZQ‐02‐023‐1 was administered to male Sprague–Dawley (SD) rats (n = 3 per group) via intravenous injection at a dose of 1 mg/kg or oral gavage at a dose of 10 mg/kg. Blood samples were collected at predetermined time points, and plasma concentrations of LZQ‐02‐023‐1 were determined using a validated LC‐MS/MS method. Briefly, working solutions of the analyte were prepared by diluting stock solutions with 50% acetonitrile in water to achieve serial concentrations (10, 20, 50, 100, 200, 500, 1000, 5000, and 10 000 ng/mL). Calibration standards were prepared by spiking 5 µL of working solution into 50 µL of blank SD rat plasma, resulting in final concentrations of 1, 2, 5, 10, 20, 50, 100, 500, and 1000 ng/mL in a total volume of 55 µL. Quality control (QC) samples were independently prepared at four concentrations (2, 5, 50, and 800 ng/mL) using blank SD rat plasma, following the same procedure as for the calibration standards. On the day of analysis, 55 µL of each calibration standard, QC sample, or unknown sample (prepared by mixing 50 µL of SD rat plasma with 5 µL of blank solution) was added to 200 µL of acetonitrile:methanol (1:1, v/v) containing an internal standard (IS) mixture for protein precipitation. The samples were vortexed for 30 s, centrifuged at 4000 rpm for 15 min at 4 °C, and the resulting supernatant was diluted threefold with water. A 10 µL aliquot of the diluted supernatant was injected into an AB Sciex Triple Quad 5500 LC‐MS/MS system for quantitative analysis. Pharmacokinetic parameters, including the maximum plasma concentration (Cmax), time to reach Cmax (Tmax), elimination half‐life (t1⁄2), area under the plasma concentration‐time curve (AUC0–t and AUC0–∞), clearance (CL), and volume of distribution (Vd), were calculated using noncompartmental analysis (NCA) in Phoenix WinNonlin 8.3 (Certara; Table S3, Supporting Information).

[2] = IV 1 mg/kg, individual rats R01-R03, 1 mg/kg
[3] = PO 10 mg/kg, individual rats R04-R06, 10 mg/kg

Question: What does the source list for Cc1ccc(Nc2ncc3c(n2)N(C)C(=O)N(c2cccc(N)c2)C3)cn1 [LZQ-02-023-01, Three‐(3‐aminophenyl)‐1‐methyl‐7‐((6‐methylpyridin‐3‐yl)amino)‐3,4‐dihydropyrimido [4,5‐d] pyrimidin‐2 (1H)‐one]?
Answer: Signs of overt toxicity (ICR mice; 7 days): did not observe any signs of overt toxicity; Histopathological analysis of major organs (ICR mice; end of 7-day period): no apparent tissue damage; AUC_%Extrap_obs, mean ([1]; IV 1 mg/kg): 1.09%; C0, mean ([1]; IV 1 mg/kg): 2250 ng/mL; Vss_obs, mean ([1]; IV 1 mg/kg): 0.660 L/kg; Plasma concentration ([1]; IV 1 mg/kg, 5 min, individual rats R01-R03, 1 mg/kg): 532 ng/mL and 563 ng/mL; Plasma concentration ([1]; IV 1 mg/kg, 0.25 h, individual rats R01-R03, 1 mg/kg): 35.5 ng/mL and 26.8 ng/mL; Plasma concentration ([1]; IV 1 mg/kg, 0.5 h, individual rats R01-R03, 1 mg/kg): 12.4 ng/mL and 16.0 ng/mL; Plasma concentration ([1]; IV 1 mg/kg, 1 h, individual rats R01-R03, 1 mg/kg): 4.29 ng/mL and 4.07 ng/mL; Plasma concentration ([1]; IV 1 mg/kg, 2 h, individual rats R01-R03, 1 mg/kg): 2.11 ng/mL and 1.86 ng/mL; Plasma concentration ([1]; IV 1 mg/kg, 4 h, individual rats R01-R03): BLOQ (BLOQ = Below quantifiable limit of 1 ng/mL.); Plasma concentration ([1]; IV 1 mg/kg, 8 h, individual rats R01-R03): BLOQ (BLOQ = Below quantifiable limit of 1 ng/mL.); Plasma concentration ([1]; IV 1 mg/kg, 24 h, individual rats R01-R03): BLOQ (BLOQ = Below quantifiable limit of 1 ng/mL.); AUCInf [1, 2]: 170 ng·h/mL and 195 ng·h/mL; AUC_%Extrap_obs [1, 2]: 1.46% and 1.11% and 0.712%; AUClast [1, 2]: 169 ng·h/mL and 193 ng·h/mL; C0 [1, 2]: 2058 ng/mL and 2578 ng/mL; Cl_obs [1, 2]: 97.8 mL/min/kg and 85.6 mL/min/kg; MRTInf_obs [1, 2]: 7.2 min and 5.85 min; T1/2 [1, 2]: 37.4 min and 31 min; Vss_obs [1, 2]: 0.772 L/kg and 0.707 L/kg and 0.501 L/kg; AUC_%Extrap_obs, mean ([1]; PO 10 mg/kg): 12.8%; F (bioavailability) ([1]; PO 10 mg/kg vs IV 1 mg/kg, individual rats R04-R06): 2.37% and 1.27%; Plasma concentration ([1]; PO 10 mg/kg, 0.25 h, individual rats R04-R06, 10 mg/kg): 39.0 ng/mL and 24.0 ng/mL and 8.83 ng/mL; Plasma concentration ([1]; PO 10 mg/kg, 0.5 h, individual rats R04-R06, 10 mg/kg): 20.0 ng/mL and 20.1 ng/mL; Plasma concentration ([1]; PO 10 mg/kg, 1 h, individual rats R04-R06, 10 mg/kg): 7.33 ng/mL and 6.63 ng/mL and 3.54 ng/mL; Plasma concentration ([1]; PO 10 mg/kg, 2 h, individual rats R04-R06, 10 mg/kg): 3.36 ng/mL and 12.9 ng/mL and 3.14 ng/mL; Plasma concentration ([1]; PO 10 mg/kg, 4 h, individual rats R04-R06, 10 mg/kg): 2.02 ng/mL and 1.36 ng/mL; Plasma concentration ([1]; PO 10 mg/kg, 8 h, individual rats R04-R06): BLOQ (BLOQ = Below quantifiable limit of 1 ng/mL.); Plasma concentration ([1]; PO 10 mg/kg, 24 h, individual rats R04-R06): BLOQ (BLOQ = Below quantifiable limit of 1 ng/mL.); AUCInf [1, 3]: 42.0 ng·h/mL and 22.6 ng·h/mL; AUC_%Extrap_obs [1, 3]: 15.0% and 5.19% and 18.1%; AUClast [1, 3]: 27.6 ng·h/mL and 39.8 ng·h/mL and 18.5 ng·h/mL; Cmax [1, 3]: 24.0 ng/mL and 20.1 ng/mL; MRTInf_obs [1, 3]: 97.2 min and 134 min; T1/2 [1, 3]: 101 min and 44.9 min and 125 min; Tmax [1, 3]: 30 min; concentration at 5 min ([1]; male, Sprague-Dawley, rat, plasma, iv, 1 mg/kg, IV 1 mg/kg, 5 min, individual rats R01-R03, read-out: Plasma concentration): 504 ng/mL; concentration at 5 min ([1]; male, Sprague-Dawley, rat, plasma, iv, 1 mg/kg, IV 1 mg/kg, 5 min, read-out: Plasma concentration, mean): 533 ng/mL; concentration at 0.25 h ([1]; male, Sprague-Dawley, rat, plasma, iv, 1 mg/kg, IV 1 mg/kg, 0.25 h, individual rats R01-R03, read-out: Plasma concentration): 28.6 ng/mL
